Here are results for 3 compounds from paper PMC11002876, “KcsA-Kv1.x chimeras with complete ligand-binding sites provide improved predictivity for screening selective Kv1.x blockers” (The Journal of Biological Chemistry, 2024).

Experiment [1] concerns human Kv1.2 channel (hKv1.2). The experiment in a line: Whole-cell patch-clamp, hKv1.2-expressing CHO cells. Conditions: see Table 1 and Fig. S2; 10 nM peptide in patch-clamp. Format: cell-based. As to the method:
Chinese Hamster Ovarian cells were grown in Dulbecco’s modified Eagle’s medium–high glucose supplemented with 10% FBS, 2 mM L-glutamine, 100 U/ml penicillin-g, and 100 μg/ml streptomycin (Invitrogen) at 37 °C in a 5% CO2 and 95% air humidified atmosphere. Cells were passaged twice per week following a 5 min incubation in PBS containing 0.2 g/L EDTA. Chinese Hamster Ovarian cells were transiently transfected with plasmids encoding human Kv1.1 (hKCNA1 gene) and human Kv1.2 (hKCNA2 gene) in pCMV6-AC-GFP plasmid (RG211000 and RC222200, OriGene Technologies) using Lipofectamine 2000 (Invitrogen) following the manufacturer’s protocol, then cultured under standard conditions. Transfected cells were washed twice with 2 ml of extracellular solution (ECS, see below) and replated onto 35 mm polystyrene cell culture dishes (Cellstar, Greiner Bio-One) before the patch-clamp experiments. […] In general, currents were recorded 24 to 36 h after transfection.
Conventional whole-cell patch-clamp electrophysiology was used to record ionic currents. Micropipettes were pulled from GC150F-7.5 borosilicate capillaries (Harvard Apparatus) with tip diameters between 0.5 and 1 μm resulting in a tip resistance of 2 to 8 MΩ in the extracellular (bath) solution. […]
Native peptides, phage-expressed peptides, and positive controls used for them were dissolved in ECS supplemented with 0.1 mg/ml bovine serum albumin (BSA; Sigma-Aldrich Hungary). Bath perfusion around the measured cell with different extracellular solutions was achieved using a gravity flow micro perfusion system using a rate of 0.5 ml/min. […]
Voltage protocols: For measurement of Kv1.1 to 1.3 currents, voltage steps to +50 mV were applied from a holding potential of −120 mV and the peak current was measured every 15 s. […] The remaining current fraction at a given molar concentration was calculated as I/I0, where I0 is the peak current in the absence and I is the peak current at equilibrium block or […] after ∼2 min perfusion by the investigated peptide/phage.

Experiment [2] concerns the target T1, KcsA-Kv1.1 T+F chimera (Streptomyces lividans, UniProt P0A334, A54E/A57S/G53E/G56E/I60S/L59F/L81M/P55A/Q58H/R52A/R64D/T61S/Y62I).
T1 sequence (P0A334 1-160 R52A/G53E/A54E/P55A/G56E/A57S/Q58H/L59F/I60S/T61S/Y62I/R64D/L81M): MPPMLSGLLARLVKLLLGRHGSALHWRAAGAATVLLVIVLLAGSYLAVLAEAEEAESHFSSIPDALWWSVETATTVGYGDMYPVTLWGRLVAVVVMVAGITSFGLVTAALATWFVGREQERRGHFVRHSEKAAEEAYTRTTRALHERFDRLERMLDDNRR
The experiment in a line: Phage-binding competition assay, KcsA-Kv1.1 T+F. On the set-up: species or system human Kv1.1 turret and filter in Streptomyces lividans KcsA. As to the method:
Phage stock solutions were diluted to working concentration with phage resuspension buffer supplemented with 2 mM DDM. For protein immobilization, the following amounts were used in a final volume of 50 μl/well: wt KcsA, 0.1 μg; KcsA-Kv1.1 T-only, 0.005 μg; KcsA-Kv1.1 T+F, 0.02 μg; KcsA-Kv1.2 T-only, 0.01 μg; KcsA-Kv1.2 T+F, 0.1 μg; KcsA-Kv1.3 T-only, 0.01 μg; and KcsA-Kv1.3 T+F, 0.1 μg. Protein samples were diluted in 50 μl of storage buffer (20 mM Tris pH8.0, 300 mM KCl, 2 mM DDM) and were added to the designated wells of a Pierce Clear, 96-Well Nickel Coated Plate (15442, Thermo Fisher Scientific), then incubated for 1 h at room temperature on a horizontal shaker at 130 rpm. The plate was blocked for 1 h at room temperature with 180 μl/well TBS-BSA supplemented with 1 mM DDM. Following blocking, the wells were washed 4× with washing buffer (300 μl TBS-Tween, 0.1% v/v) using a Wellwash Versa microplate washer (Thermo Fisher Scientific); then 50 μl phage solution (in TBS-BSA-Tween, 0.1% v/v, 2 mM DDM) at determined phage concentration was added to the wells and incubated for 1 h at room temperature on a horizontal shaker. The plate was washed 4× with washing buffer, then 50 μl anti-M13 IgG HRP (MA5-36125, Invitrogen) diluted to 1:2500 in TBS-Tween (0.1% v/v) was added to the wells and incubated for 1 h at room temperature. The plate was washed again 4× with 300 μl/well washing buffer. Finally, 50 μl/well 1-Step Ultra TMB-ELISA solution (34028, Thermo Fisher Scientific) was added to the wells, and the developing signal was stopped with 50 μl 1M HCl after 5 to 10 min. The light absorbance signal was read at 450 nm with Byonoy absorbance 96 plate reader (Byonoy GmbH).
For protein immobilization, the following amounts were used in a final volume of 50 μl/well: KcsA-Kv1.1 T-only, 0.005 μg; KcsA-Kv1.1 T+F, 0.01 μg; KcsA-Kv1.2 T-only, 0.025 μg; KcsA-Kv1.2 T+F, 0.0125 μg; KcsA-Kv1.3 T-only, 0.01 μg; and KcsA-Kv1.3 T+F, 0.1 μg. Protein samples were diluted in storage buffer. Binding of given concentrations of relevant ligand-displaying phages quantified by light absorbance ([…]) were investigated in a similar manner as in phage ELISA-binding assay, while different concentrations of competing toxin test substances were applied simultaneously. The results were converted to percent inhibitions (percent displacement) of the indicator phage binding, and relative affinities of the tested toxins were assessed by plotting percent displacements against log concentrations and determining half maximal inhibitory concentrations (IC50) by sigmoidal curve fitting using “Sigmoidal dose-response (variable slope) with least squares method” algorithm in GraphPad Prism 8 using the following equation: Y=Bottom+Top−Bottom/1+10^(LogEC50−×)⋅HillSlope

Where [3] appears, read: displacement of ShK-phage, KcsA-Kv1.1 T+F 0.01 μg/well on nickel-coated plate, mean ± SD (n = 3), NQ = not quantifiable, read-out: IC50, T+F chimera (Kv1.1).

Molecules are shown by their SMILES. Like-named read-outs stand apart in the source and are kept apart here. Where a SMILES comes first, the peptide text is derived from it.

As to `CC[C@H](C)[C@H](NC(=O)[C@H](CCC(=O)O)NC(=O)[C@@H](NC(=O)CN)C(C)C)C(=O)N[C@@H](CC(N)=O)C(=O)N[C@H](C(=O)N[C@@H](CCCCN)C(=O)N[C@H]1CSSC[C@@H]2NC(=O)[C@H](CCCCN)NC(=O)CNC(=O)[C@H](Cc3ccccc3)NC(=O)[C@H](CCCNC(=N)N)NC(=O)[C@H](CCSC)NC(=O)CNC(=O)[C@H](C)NC(=O)[C@H](CC(=O)O)NC(=O)[C@H](CCCCN)NC(=O)[C@@H]3CSSC[C@@H](C(=O)N[C@H](C(=O)N4CCC[C@H]4C(=O)N[C@@H](CCCCN)C(=O)O)[C@@H](C)O)NC(=O)[C@H](Cc4c[nH]cn4)NC(=O)[C@H](CSSC[C@H](NC(=O)[C@H](CCC(N)=O)NC(=O)[C@@H]4CCCN4C(=O)[C@H](CO)NC(=O)CNC(=O)[C@H](CO)NC1=O)C(=O)N[C@@H](CC(C)C)C(=O)N[C@@H](CCCCN)C(=O)N1CCC[C@H]1C(=O)N3)NC(=O)[C@H](CCCCN)NC(=O)[C@H](CCCNC(=N)N)NC(=O)[C@H](CC(N)=O)NC(=O)[C@H](CCSC)NC2=O)C(C)C` [KTX1, Kaliotoxin-1], the “potency ranking, Kv1.2” value in experiment [1] is listed as “MTX > ShK >> KTX1”. Besides, in experiment [2] (setting [3]), the IC50 stood at 1.49 nM.
For `CC[C@H](C)[C@@H]1NC(=O)[C@@H]2CSSC[C@H](NC(=O)[C@H](CO)NC(=O)[C@@H](N)C(C)C)C(=O)N[C@@H]([C@@H](C)O)C(=O)NCC(=O)N[C@@H](CO)C(=O)N[C@@H](CCCCN)C(=O)N[C@@H](CC(=O)O)C(=O)N[C@@H](CSSC[C@@H](C(=O)N[C@@H](CCCCN)C(=O)N[C@H]3CSSC[C@@H](C(N)=O)NC(=O)CNC(=O)[C@H](Cc4ccc(O)cc4)NC3=O)NC(=O)[C@H](CO)NC(=O)[C@H](CCCCN)NC(=O)[C@H](CC(N)=O)NC1=O)C(=O)N[C@@H](Cc1ccc(O)cc1)C(=O)N[C@@H](C)C(=O)N1CCC[C@H]1C(=O)N[C@H]1CSSC[C@H](NC(=O)CNC(=O)[C@H]([C@@H](C)O)NC(=O)[C@H](CCC(N)=O)NC(=O)[C@H](CCCCN)NC(=O)[C@H](CCCNC(=N)N)NC1=O)C(=O)N1CCC[C@H]1C(=O)N[C@@H](CC(N)=O)C(=O)N[C@@H](C)C(=O)N[C@@H](CCCCN)C(=O)N2` [MTX, Maurotoxin] (HELM PEPTIDE1{V.S.C.T.G.S.K.D.C.Y.A.P.C.R.K.Q.T.G.C.P.N.A.K.C.I.N.K.S.C.K.C.Y.G.C.[am]}$PEPTIDE1,PEPTIDE1,3:R3-24:R3|PEPTIDE1,PEPTIDE1,9:R3-29:R3|PEPTIDE1,PEPTIDE1,13:R3-19:R3|PEPTIDE1,PEPTIDE1,31:R3-34:R3$$$V2.0; N-terminus and C-terminus assumed), the “potency ranking, Kv1.2” value in experiment [1] is “MTX > ShK >> KTX1”. Also, the IC50 in experiment [2] (setting [3]) was more than 1000 nM.
`CC[C@H](C)[C@@H]1NC(=O)[C@@H](NC(=O)[C@H](CO)NC(=O)[C@@H](N)CCCNC(=N)N)CSSC[C@@H](C(=O)O)NC(=O)[C@H]([C@@H](C)O)NC(=O)CNC(=O)[C@@H]2CSSC[C@@H]3NC(=O)[C@H](CCC(N)=O)NC(=O)[C@H](Cc4ccccc4)NC(=O)[C@H](C)NC(=O)[C@H]([C@@H](C)O)NC(=O)[C@H](CSSC[C@H](NC(=O)[C@H](Cc4ccccc4)NC(=O)[C@H](CO)NC(=O)[C@H](CC(C)C)NC(=O)[C@H](CCCNC(=N)N)NC(=O)[C@H](Cc4ccc(O)cc4)NC(=O)[C@H](CCCCN)NC(=O)[C@H](CCSC)NC(=O)[C@H](CO)NC(=O)[C@H](Cc4c[nH]cn4)NC(=O)[C@H](CCCCN)NC3=O)C(=O)N[C@@H](CCCNC(=N)N)C(=O)N[C@@H](CCCCN)C(=O)N[C@@H]([C@@H](C)O)C(=O)N2)NC(=O)[C@H](CCCNC(=N)N)NC(=O)[C@H](CO)NC(=O)[C@H](CCCCN)NC(=O)[C@@H]2CCCN2C(=O)[C@H]([C@@H](C)CC)NC(=O)[C@H]([C@@H](C)O)NC(=O)[C@H](CC(=O)O)NC1=O` [ShK, Stichodactyla toxin]: the “potency ranking, Kv1.2” value in experiment [1] is recorded as “MTX > ShK >> KTX1”. Besides, the IC50 in experiment [2] (ShK-phage competition, T+F KcsA-Kv1.1, value given in figure, sigmoidal fit to means of three replicates, read-out: IC50 (Fig. 8F)) came out at 0.271 nM.
